According to US9834808B2, “Methods for rapid antibiotic susceptibility testing” (SeLux Diagnostics, Inc., priority 2016, dated 2017):
Values after ≈ are worked out from the molar mass of the structure shown.

Assays:
[1] = system: S. aureus (QC strain 29213); experiment: standard CLSI reference method MIC (fast-AST MICs stated to be similar); assay type: cell-based, Staphylococcus aureus
Protocol: Microorganism detection is then performed visually.
S. aureus (QC strain 29213) was cultured under standard sterile conditions in Mueller-Hinton (MH) broth overnight at 37° C. with shaking.
The microplates, each well containing 100 μL, were inoculated with the prepared antimicrobial dilutions and incubated at 37° C. for 3 hours, 45 minutes for determination using the present invention (the “fast-AST” technique). The “fast-AST” microplates were removed from the shaking incubator after 3 hours, 45 minutes and centrifuged for 2.5 minutes at 2500×g in order to pellet. The MH broth was then aspirated and 100 μL of 25 mM PBS was added to each well of both microplates. Then, 10 µL of the chemical moiety (here, Europium-Cryptate formulation) was added to each well (to 20 ng/well) and 10 μL of 0.005% Glutaraldehyde (as the signaling agent) was added to each well. The two microplates were then shaken at 300 rpm for 30 minutes. After, both plates were centrifuged for 2.5 minutes at 2500×g to pellet. The solution was aspirated and a wash of 200 μL PBS-tween was added to each well, followed by a centrifugation to pellet. After aspiration of solution, a second identical wash of 200 μL PBS-tween occurred, followed by a final centrifugation to pellet. 200 μL PBS-tween was added to each well. The plate was then read using time resolved fluorescence on a BioTek H1 plate reader.

[2] = system: clinical S. aureus strain; experiment: CLSI overnight method MIC; settings: Staphylococcus aureus
[3] = system: ampicillin-resistant E. coli (ATCC 39936); experiment: fluorescent nanoparticle signaling agent assay (free signaling agents in filtrate); assay type: cell-based, Escherichia coli; settings: 100 μg/ml ampicillin, 1.5 hours, 0.2 μm filtrate; FIG. 41
Protocol: (§1) Both Escherichia coli (ATCC 11303) and ampicillin-resistant E. coli (ATCC 39936) were cultured under standard sterile conditions in LB broth at 37° C. Concentrations were determined by measuring absorbance at 600 nm (McFarland), and a concentration of 5×10^5 CFU/ml was set by dilution. Ampicillin was then weighed into sterile water and added in appropriate concentrations to sterile 3 mL microfuge tubes. Bacteria and nanoparticles at a concentration of 8×10^8 nanoparticles/ml were both added to these ampicillin-coated sterile microfuge tubes. The tubes were then capped and placed at 37° C. for 1.5 hours with continuous shaking, after which they were opened and each was passed through a 0.2 μm filter. Next, 100 μL of each filtrate was added to a well of a 96-well plate and 150 μL of a development solution (5% tetramethylammonium hydroxide in ethanol) was added to each well. After 5 minutes the plate was read at 490 nm excitation/530 nm emission in a SpectraMax M2 microplate reader (Molecular Devices).
(§2) An assay for free signaling agents, which are not associated with intact bacteria, was performed after intact bacteria were removed by filtration through a 0.2 μm filter.

[4] = system: clinical resistant E. coli ("Clinical"); experiment: fast-AST with Europium-Cryptate/glutaraldehyde, clinical strain; assay type: cell-based, Escherichia coli; settings: 3 hours 45 minutes incubation, FIG. 17, FIG. 21
Protocol: (§3) Both Escherichia coli (QC strain, ATCC 25922) and clinical resistant E. coli (“Clinical”) were cultured under standard sterile conditions in Mueller-Hinton (MH) broth overnight at 37° C. with shaking. The E. coli concentration from the overnight culture was then set to 5×10^5 CFU/ml using the McFarland standard technique for optical density readings at 600 nm. Concurrently, two sterile 96-well microplates were prepared with serial dilutions of a specified antimicrobial (see below) and a no-antimicrobial (saline) control, all in MH broth. The microplates, each well containing 200 μL, were inoculated with the prepared antimicrobial dilutions and incubated at 37° C. for 3 hours, 45 minutes for determination using the present invention (the “fast-AST” technique). The “fast-AST” microplates were removed from the shaking incubator after 3 hours, 45 minutes and centrifuged for 2.5 minutes at 2500 g in order to pellet. The MH broth was then aspirated and 100 μL of water was added to each well of both microplates. Then, 10 μL of the chemical moiety (here, Europium-Cryptate formulation) was added to each well (to 20 ng/well) and 10 μL of 5% Glutaraldehyde (as the signaling agent) was added to each well. The two microplates were then shaken at 300 rpm for 30 minutes. […] The plate was then read using time resolved fluorescence on a BioTek H1 plate reader.

[5] = system: Escherichia coli (ATCC 11303); experiment: fluorescent nanoparticle signaling agent assay (free signaling agents in filtrate); assay type: cell-based
Protocol: as §1, §2

[6] = system: Escherichia coli (QC strain, ATCC 25922) and clinical resistant E. coli ("Clinical"); experiment: fast-AST with Europium-Cryptate/glutaraldehyde, QC strain compared with clinical strain; assay type: cell-based; settings: 3 hours 45 minutes incubation, FIG. 16 to FIG. 23
Protocol: as §3

[7] = system: Pseudomonas aeruginosa (ATCC strain 27853); experiment: standard overnight growth, OD600 control MIC determination; assay type: cell-based; settings: ATCC27853, overnight (>12 hours) incubation, FIG. 6
Protocol: (§4) Similarly, a culture of Pseudomonas aeruginosa (ATCC strain 27853) was grown using MH broth overnight at 37° C. with vigorous shaking. […] The data shown in FIG. 6 depicts from the 5 minute point after the start of incubation with detection solution. […] The MIC determined by both techniques is the same: 4 μg/ml.

[8] = system: Pseudomonas aeruginosa (ATCC strain 27853); experiment: fast-AST MIC determination (HRP-conjugated anti-P. aeruginosa antibody signaling agent); assay type: cell-based; settings: ATCC27853, 3.5 hours incubation, susceptible strain, FIG. 6, FIG. 7
Protocol: as §4
(§5) The MIC for the resistant P. aeruginosa strain, ATCC BAA-2108, was determined similarly. The same 96-well microplate was used for both strains, with 48 wells dedicated to each strain.

[9] = system: resistant P. aeruginosa strain, ATCC BAA-2108; experiment: fast-AST MIC determination, resistant strain; assay type: cell-based; settings: Pseudomonas aeruginosa, ATCCBAA2108, FIG. 7
Protocol: as §4, §5

[10] = standard CLSI reference method, fast-AST MICs similar, FIG. 24 to FIG. 26

CN[C@H](CC(C)C)C(=O)N[C@H]1C(=O)N[C@@H](CC(N)=O)C(=O)N[C@H]2C(=O)N[C@H]3C(=O)N[C@H](C(=O)N[C@H](C(=O)O)c4cc(O)cc(O)c4-c4cc3ccc4O)[C@H](O)c3ccc(c(Cl)c3)Oc3cc2cc(c3O[C@@H]2O[C@H](CO)[C@@H](O)[C@H](O)[C@H]2O[C@H]2C[C@](C)(N)[C@H](O)[C@H](C)O2)Oc2ccc(cc2Cl)[C@H]1O [Vancomycin]
MIC ([1]; Staphylococcus aureus): 0.5 to 2 µg/mL (≈ 0.345 to 1.38 µM)
MIC [2]: 8 µg/mL (≈ 5.52 µM)

CC1(C)S[C@@H]2[C@H](NC(=O)[C@H](N)c3ccccc3)C(=O)N2[C@H]1C(=O)O [ampicillin]
fluorescent signal of free signaling agent [3]: low fluorescent signals
susceptibility call of the clinical strain [4]: resistant
fluorescent signal of free signaling agent ([5]; 100 μg/ml ampicillin, 1.5 hours, 0.2 μm filtrate, FIG. 41): significant increase in fluorescence
MIC ([5]; Escherichia coli, ATCC11303, varying ampicillin concentrations, fluorescent nanoparticle assay, FIG. 42): ~15 µg/mL (≈ 42.9 µM)
MICs of QC strain compared with clinical resistant strain [6]: dissimilar MICs

CC(C)(O/N=C(\C(=O)N[C@@H]1C(=O)N2C(C(=O)[O-])=C(C[n+]3ccccc3)CS[C@H]12)c1csc(N)n1)C(=O)O [ceftazidime]
MIC [7]: 4 µg/mL (≈ 7.32 µM)
MIC [8]: 4 µg/mL (≈ 7.32 µM)

C[C@@H](O)[C@H]1C(=O)N2C(C(=O)O)=C(SCCN=CN)C[C@H]12 [imipenem]
MIC [9]: 32 µg/mL (≈ 107 µM)
MIC [8]: 2 µg/mL (≈ 6.68 µM)

Penicillin
MIC [1, 10]: 0.25 to 2 µg/mL

Teicoplanin
MIC [1, 10]: 0.25 to 1 µg/mL
